Data taken from patent US20120040977A1, “INHIBITORS OF HCV NS5A” (PRESIDIO PHARMACEUTICALS, INC., priority 2009, published 2012).

Test system: HCV genotype 1b replicon
Assay: HCV replicon assay (HCV 1b_Huh-Luc/Neo-ET cell line, luciferase readout)
Format: cell-based
Details: Hepatitis C virus; bicistronic genotype 1b replicon in Huh 7 cells, 72 h incubation, luciferase enzyme activity; read-out: Inhibition of HCV genotype 1b
Experimental: Biological activity of the compounds of the invention was determined using an HCV replicon assay. The HCV 1b_Huh-Luc/Neo-ET cell line persistently expressing a bicistronic genotype 1b replicon in Huh 7 cells was obtained from ReBLikon GMBH. This cell line was used to test compound inhibition using luciferase enzyme activity readout as a measurement of compound inhibition of replicon levels.
On Day 1 (the day after plating cells), each compound is added in triplicate to the cells. Plates are incubated for 72 h prior to determining luciferase levels. Enzyme activity was measured using a Bright-Glo Kit (cat. number E2620) manufactured by Promega Corporation. The following equation was used to generate a percent control value for each compound.
% Control=(Average Compound Value/Average Control)*100
The EC50 value was determined using GraphPad Prism and the following equation:
Y=Bottom+(Top−Bottom)/(1+10̂((LogIC50−X)*HillSlope))
EC50 values of compounds are determined several times in the replicon assay. […]

SMILES | EC50 [nM]
C[C@@H](NC(=O)OC(C)(C)C)C(=O)N1CCC[C@H]1c1ncc(-c2ccc(Oc3ccc(-c4cnc([C@@H]5CCCN5C(=O)[C@@H](C)NC(=O)OC(C)(C)C)[nH]4)cc3)cc2)[nH]1 [Compound 47] | 1 to 9.9
COC(=O)N[C@H](C(=O)N1CCC[C@H]1c1nc2c([nH]1)-c1ccc(-c3ccc(NC(=O)[C@@H]4CCCN4C(=O)[C@H](NC(=O)OC)c4ccccc4)cc3)cc1CC2)C(C)C [Compound 117] | < 1
CC(C)[C@@H](NC(=O)OC(C)(C)C)C(=O)N1CCOC[C@H]1C(=O)Nc1ccc(-c2ccc(-c3cnc([C@@H]4CCCN4C(=O)[C@H](NC(=O)OC(C)(C)C)C(C)C)[nH]3)cc2)cc1 [Compound 13] | 10 to 999
CN1CCN(C(=O)N[C@@H](C(=O)N2CCC[C@H]2C(=O)NCc2ccc(-c3ccc(-c4cnc([C@@H]5CCCN5C(=O)[C@H](NC(=O)N5CCN(C)CC5)c5ccccc5)[nH]4)cc3)cc2)c2ccccc2)CC1 [Compound 45] | 1 to 9.9
COC(=O)N[C@@H](C)C(=O)N1CCC[C@H]1C(=O)N[C@H](C)c1ccc(-c2ccc(-c3cnc([C@@H]4CCCN4C(=O)[C@H](C)NC(=O)OC)[nH]3)cc2)cc1 [Compound 96] | 1 to 9.9
C=CC[C@H](NC(=O)OC)C(=O)N1CCC[C@H]1C(=O)NCc1ccc(-c2ccc(-c3cnc([C@@H]4CCCN4C(=O)[C@H](CC=C)NC(=O)OC)[nH]3)cc2)cc1 [Compound 80] | 1 to 9.9
COC(=O)N[C@H](C(=O)N1CCC[C@H]1C(=O)Nc1ccc(-c2ccc3c(c2)CCc2nc([C@@H]4CCCN4C(=O)[C@@H](NC(=O)OC)C(C)C)[nH]c2-3)cc1)C(C)C [Compound 112] | 1 to 9.9
O=C(N[C@@H](C(=O)N1CCC[C@H]1c1ncc(-c2ccc(Sc3ccc(-c4cnc([C@@H]5CCCN5C(=O)[C@H](NC(=O)N5CCOCC5)c5ccccc5)[nH]4)cc3)cc2)[nH]1)c1ccccc1)N1CCOCC1 [Compound 51] | < 1
CC(C)(C)OC(=O)N[C@@H](C(=O)N1CCOC[C@H]1C(=O)Nc1ccc(-c2ccc(-c3cnc([C@@H]4CCCN4C(=O)[C@H](NC(=O)OC(C)(C)C)c4ccccc4)[nH]3)cc2)cc1)c1ccccc1 [Compound 21] | < 1
COC(=O)N[C@H](C(=O)N1CCC[C@H]1CNC(=O)c1ccc(-c2ccc3c(ccc4nc([C@@H]5CCCN5C(=O)[C@@H](NC(=O)OC)C(C)C)[nH]c43)c2)cc1)C(C)C [Compound 113] | < 1
O=C(N[C@@H](C(=O)N1CCC[C@H]1C(=O)NCc1ccc(-c2ccc(-c3cnc([C@@H]4CCCN4C(=O)[C@H](NC(=O)C4CC4)c4ccccc4)[nH]3)cc2)cc1)c1ccccc1)C1CC1 [Compound 43] | < 1
CN1CCN(C(=O)N[C@@H](C(=O)N2CCC[C@H]2COc2ccc(-c3ccc(-c4cnc([C@@H]5CCCN5C(=O)[C@H](NC(=O)N5CCN(C)CC5)c5ccccc5)[nH]4)cc3)cc2)c2ccccc2)CC1 [Compound 35] | 1 to 9.9
C#CC[C@H](NC(=O)OC)C(=O)N1CCC[C@H]1C(=O)Nc1ccc(-c2ccc(-c3cnc([C@@H]4CCCN4C(=O)[C@H](CC#C)NC(=O)OC)[nH]3)cc2)cc1 [Compound 76] | 1 to 9.9
CC(C)(C)OC(=O)N[C@@H](C(=O)N1CCC[C@H]1c1ncc(-c2ccc(Oc3ccc(-c4cnc([C@@H]5CCCN5C(=O)[C@H](NC(=O)OC(C)(C)C)c5ccccc5)[nH]4)cc3)cc2)[nH]1)c1ccccc1 [Compound 52] | < 1
COC(=O)N[C@H](C(=O)N1CCC[C@H]1C(=O)N[C@H](C)c1ccc(-c2ccc(-c3cnc([C@@H]4CCCN4C(=O)[C@@H](NC(=O)OC)C(C)C)[nH]3)cc2)cc1)C(C)C [Compound 97] | 1 to 9.9
COC(=O)N[C@@H](C(=O)N[C@@H](C)c1ncc(-c2ccc(-c3ccc(C(=O)NC[C@@H]4CCCN4C(=O)[C@H](NC(=O)OC)c4ccccc4)nc3)cc2)[nH]1)c1ccccc1 [Compound 93] | < 1
C[C@@H](NC(=O)OC(C)(C)C)C(=O)N1CCOC[C@H]1C(=O)Nc1ccc(-c2ccc(-c3cnc([C@@H]4CCCN4C(=O)[C@@H](C)NC(=O)OC(C)(C)C)[nH]3)cc2)cc1 [Compound 12] | 10 to 999
C[C@H](NC(=O)[C@@H]1CCCN1C(=O)[C@H](NC(=O)N1CCOCC1)c1ccccc1)c1ccc(-c2ccc(-c3cnc([C@@H]4CCCN4C(=O)[C@H](NC(=O)N4CCOCC4)c4ccccc4)[nH]3)cc2)cc1 [Compound 38] | 1 to 9.9
CC(C)(C)OC(=O)N1CCOCC1C(=O)Nc1ccc(-c2ccc(-c3cnc([C@@H]4CCCN4C(=O)OC(C)(C)C)[nH]3)cc2)cc1 (some centres unmarked) [Compound 6] | 10 to 999
COC(=O)N[C@H](C(=O)N1CCC[C@H]1C(=O)N[C@@H](C)c1ccc(-c2ccc(-c3cnc([C@@H]4CCCN4C(=O)[C@@H](NC(=O)OC)C(C)C)[nH]3)cc2)cc1)C(C)C [Compound 95] | < 1
CC(C)[C@@H](NC(=O)OC(C)(C)C)C(=O)N1CCC[C@H]1c1ncc(-c2ccc(Oc3ccc(-c4cnc([C@@H]5CCCN5C(=O)[C@H](NC(=O)OC(C)(C)C)C(C)C)[nH]4)cc3)cc2)[nH]1 [Compound 48] | 1 to 9.9

SMILES | EC50 [nM]
COC(=O)N[C@H](C(=O)N1CCC[C@H]1C(=O)NCc1ccc(-c2ccc3nc([C@@H]4CCCN4C(=O)[C@@H](NC(=O)OC)C(C)C)[nH]c3c2)cc1)C(C)C [Compound 87] | 1 to 9.9
C[C@@H](NC(=O)C1CC1)C(=O)N1CCC[C@H]1C(=O)Nc1ccc(-c2ccc(-c3cnc([C@@H]4CCCN4C(=O)[C@@H](C)NC(=O)C4CC4)[nH]3)cc2)cc1 [Compound 28] | 1 to 9.9
COC(=O)N[C@@H](C(=O)N1CCC[C@H]1CNC(=O)c1ccc(-c2ccc(-c3cnc([C@@H]4CCCN4C(=O)[C@@H](c4ccccc4)N4CCOCC4)[nH]3)cc2)cc1)c1ccccc1 [Compound 62] | < 1
O=C(N[C@@H](C(=O)N1CCOC[C@H]1C(=O)Nc1ccc(-c2ccc(-c3cnc([C@@H]4COCCN4C(=O)[C@H](NC(=O)C4CC4)c4ccccc4)[nH]3)cc2)cc1)c1ccccc1)C1CC1 [Compound 1] | < 1
COC(=O)N[C@H](C(=O)N1CCC[C@H]1C(=O)Nc1ccc(-c2ccc3nc([C@@H]4CCCN4C(=O)[C@@H](NC(=O)OC)C(C)C)[nH]c3c2)cc1)C(C)C [Compound 73] | 1 to 9.9
COC(=O)N[C@H](C(=O)N1CCC[C@H]1CNC(=O)c1ccc(-c2ccc3c(c2)CCc2nc([C@@H]4CCCN4C(=O)[C@@H](NC(=O)OC)C(C)C)[nH]c2-3)cc1)C(C)C [Compound 84] | < 1
CN1CCN(C(=O)N[C@@H](C(=O)N2CCC[C@H]2CNC(=O)c2ccc(-c3ccc(-c4cnc([C@@H]5CCCN5C(=O)[C@H](NC(=O)N5CCN(C)CC5)c5ccccc5)[nH]4)cc3)cc2)c2ccccc2)CC1 [Compound 57] | 1 to 9.9
COC(=O)N[C@@H](C(=O)N1CCC[C@H]1c1ncc(-c2ccc(-c3ccc(NC(=O)[C@@H]4CCCN4C(=O)[C@@H](c4ccccc4)N(C)C)cc3)cc2)[nH]1)c1ccccc1 [Compound 60] | < 1
COC(=O)N[C@H](C(=O)N1CCC[C@H]1C(=O)NCc1ccc(-c2ccc(-c3cnc([C@@H]4CCCN4C(=O)[C@@H](NC(=O)OC)C(C)C)[nH]3)cc2)cn1)C(C)C [Compound 119] | 10 to 999
COC(=O)N[C@H](C(=O)N1CCC[C@H]1c1ncc(-c2ccc(Sc3cccc(-c4cnc([C@@H]5CCCN5C(=O)[C@@H](NC(=O)OC)C(C)C)[nH]4)c3)cc2)[nH]1)C(C)C [Compound 69] | < 1
CC(C)[C@@H](NC(=O)OC(C)(C)C)C(=O)N1CCC[C@H]1C(=O)Nc1ccc(-c2ccc(-c3cnc([C@@H]4COCCN4C(=O)[C@H](NC(=O)OC(C)(C)C)C(C)C)[nH]3)cc2)cc1 [Compound 10] | 10 to 999
COC(=O)N[C@@H](C(=O)N1CCC[C@H]1C(=O)NCc1ccc(-c2ccc3nc([C@@H]4CCCN4C(=O)[C@H](NC(=O)OC)c4ccccc4)[nH]c3c2)cc1)c1ccccc1 [Compound 111] | < 1
CC(C)(C)OC(=O)N[C@@H](C(=O)N1CCC[C@H]1c1ncc(-c2ccc(Sc3ccc(-c4cnc([C@@H]5CCCN5C(=O)[C@H](NC(=O)OC(C)(C)C)c5ccccc5)[nH]4)cc3)cc2)[nH]1)c1ccccc1 [Compound 46] | < 1
COC(=O)N[C@H](C(=O)N1CCC[C@H]1C(=O)NCc1ccc(-c2ccc3cc(-c4cnc([C@@H]5CCCN5C(=O)[C@@H](NC(=O)OC)C(C)C)[nH]4)ccc3n2)cc1)C(C)C [Compound 86] | 1 to 9.9
CC(C)(C)OC(=O)N1CCOCC1C(=O)Nc1ccc(-c2ccc(-c3cnc([C@@H]4COCCN4C(=O)OC(C)(C)C)[nH]3)cc2)cc1 (some centres unmarked) [Compound 4] | > 1000
COC(=O)N[C@@H](C(=O)N1CCC[C@H]1C(=O)Nc1ccc(-c2ccc(-c3cnc([C@@H]4CCCN4C(=O)[C@H](NC(=O)OC)c4ccccc4)[nH]3)cn2)cc1)c1ccccc1 [Compound 72] | < 1
COC(=O)N[C@H](C(=O)N1CCC[C@H]1C(=O)NCc1ccc(-c2ccc(-c3cnc([C@@H]4CCCN4C(=O)[C@@H](NC(=O)OC)C(C)C)[nH]3)cc2)cc1)C(C)C [Compound 105] | 10 to 999
COC(=O)N[C@H](C(=O)N1CCC[C@H]1C(=O)Nc1ccc(-c2ccc(-c3cnc([C@@H]4CCCN4C(=O)[C@@H](NC(=O)OC)C(C)C)[nH]3)cn2)cc1)C(C)C [Compound 71] | 1 to 9.9
CC(C)(C)OC(=O)N[C@@H](C(=O)N1CCC[C@H]1C(=O)NCc1ccc(-c2ccc(-c3cnc([C@@H]4CCCN4C(=O)[C@H](NC(=O)OC(C)(C)C)c4ccccc4)[nH]3)cc2)cc1)c1ccccc1 [Compound 33] | < 1
COC(=O)N[C@H](C(=O)N1CCC[C@H]1C(=O)N[C@@H](C)c1ccc(-c2ccc(-c3cnc([C@@H]4CCCN4C(=O)[C@@H](NC(=O)OC)C4CCOCC4)[nH]3)cc2)cc1)C1CCOCC1 [Compound 101] | 1 to 9.9
